Data reported in US20220252625A1, “TREATMENT AND DIAGNOSIS OF CHRONIC INFLAMMATORY CONDITIONS IN THE LOWER URINARY TRACT” (SELECTIMMUNE PHARMA AB, priority 2019, published 2022).
“And” between values parts separate entries of the source, which are not always exact repeats. Equal entries are not always repeated. “Also recorded” adds a separate entry of the source. Where two headings read alike, the source gives them in different places.

Tests used:
murine cystitis model = conditions: mice, cited from earlier work
[1] = tested on: neuroinflammation and IL-1-dependent gene expression; assay: Ten-patient CPPS trial: gene expression analysis of peripheral blood RNA; format: in vivo, human
Description: Blood samples for DNA- and RNA-analyses as well as urine samples for proteomics are obtained throughout the study.

NK1R and its ligand SP = conditions: mice; cited from earlier work
[2] = tested on: patients with CPPS (Bladder, Urethral and Prostate Pain phenotype); assay: Clinical study, nine CPPS patients: symptom scoring (frequency, pain, QoL), side effects; format: in vivo, human; conditions: for clinical response in the detailed patient description, words: one patient per block (Patient 1-9); for Long-term follow-up: Comment: s.c. 100 mg long-term regimen, observation 24-397 days
Description: The effect of anakinra in the treatment of CPPS was studied in a clinical study. Inclusion criteria were CPPS mainly with the Bladder Pain phenotype, but also the with the Urethral and Prostate Pain phenotype. Exclusion criteria were uncontrolled diabetes mellitus, treatment for malignant disease within the preceding 10 years, pregnancy and age <18 years and ongoing infectious diseases, including urinary tract infections, and neutropenia (<1.5×10^9/L). Patients gave informed consent for the use of unidentified personal clinical data for research purposes. Included patients were examined using clinical standard methods to rule out any ongoing disease. Blood and serum for hemoglobulin, liver and kidney function tests and White Blood Cell (WBC) counts were analysed. Urine was obtained for dip stick test (leukocytesteras for WBC estimation, the nitur test for ruling out bacteriuria), standard urinary Interleukins (IL6, IL8 and IL1b) and for urine culture. Cystoscopy and CT urography were performed in all patients. Blood and serum analysis and cystoscopy were repeated approximately two weeks after the start of treatment, and after approximately three months. Nine patients were recruited (Table 2).
After inclusion, patients were treated with anakinra 100 mg by self-administrated subcutaneous injection, repeated once daily as a maximum, or (if relief of symptoms and pain) on demand when symptoms or pain recurred. Regularly symptom scoring on frequency, supra-pubic/bladder pain/prostate/urethral pain and Quality of Life was performed to evaluate treatment effect.

IL-1β = assay: Urine IL-1β concentration, patients with chronic cystitis; format: in vivo, human; conditions: FIG. 5
Protocol: (§1) Samples: Blood and urine samples for investigation of inflammatory processes as well as genetic and proteomic analyses.
(§2) For evaluation of the levels of systemic and local inflammatory processes, analyses of CRP, neutrophil count and Interleukins are performed in serum and urine.
(§3) To be able to define a treatment group where anakinra might serve as an effective therapeutic option, we searched for urine biomarkers. In addition to patient urine samples, samples were collected from healthy controls to compare urine concentrations of IL-1β and Substance P (SP). […] In contrast, SP concentrations was increased in patients during maximum symptoms (209 vs 75 pg/ml, P=0.003), indicating a biomarker for bladder inflammation (FIG. 2).

[3] = tested on: patients with bladder pain syndrome (BPS); assay: Open label trial, ten BPS patients: symptoms, quality of life, side effects; format: in vivo, human
Protocol: The inventors have tested the hypothesis that IL-1RA treatment may be useful to alleviate bladder pain. Ten patients with BPS were enrolled in an investigator-driven open trial. The patients received daily Kineret treatment (100 mg) for seven days. Treatment was then transiently interrupted and if the symptoms returned, treatment was resumed.
a) Schematic of the study protocol. Ten patients with a long history of BPS (ref EAU guidelines) were enrolled after informed consent and instructed to fill in a questionnaire detailing frequency of urination, pain, frequency of pain medication and quality of life. Laboratory samples were obtained at diagnosis, after the initiation of Kineret treatment (n=10), during the “treatment break” and after continuation of Kineret treatment (n=9). Neuropeptides involved in the pain response (Substance P) were quantified in urine. Peripheral blood RNA was subjected to genome wide transcriptomic analysis to define molecular effects of Kineret treatment.
In this study, we addressed if IL-1RA treatment might be efficient in patients with chronic bladder pain. We conducted an explorative, open label trial in patients with BPS (Table 5). Patients received daily subcutaneous injections of Anakinra (100 mg) for seven days and the therapeutic effects were recorded. To address potential placebo effects, treatment was transiently interrupted for a maximum of 14 days and when the symptoms returned, treatment was resumed and continued with individual treatment regimes. […] In the remaining patients, bladder pathology was not detected. During the study, patients were instructed to keep a symptom journal recording the sensation of pain and the frequency of micturition.

Substance P = assay: Urine Substance P (SP) concentration, patients with chronic cystitis; format: in vivo, human
Protocol: as §1, §2, §3

[4] = post treatment, individual patients
[5] = pre treatment baseline, individual patients

anakinra: interleukin-1 receptor antagonist (r-metHuIL-1ra) produced in Escherichia coli; recombinant, slightly modified version of the human interleukin-1 receptor antagonist protein
bacterial clearance, words (murine cystitis model): accelerate bacterial clearance | bladder inflammation, words (murine cystitis model): dramatically reduce bladder inflammation | bacterial clearance, words (murine cystitis model; listed as Kineret): increased bacterial clearance | bladder inflammation, words (murine cystitis model; listed as Kineret): dramatically reduced bladder inflammation | gene expression at the RNA level, words [1]: inhibited neuroinflammation and IL-1-dependent gene expression; also recorded: reduction in neuro-inflammation | expression of NK1R and SP in the bladder mucosa, words (NK1R and its ligand SP): reduced the expression of the pain receptor NK1R and its ligand SP | side effects ([2]; 100 mg s.c.): sparse and mild; also recorded: two cases of skin reaction at the place of injection; also recorded: one case of headache post injection; also recorded: without side effects; also recorded: minor headache | Side effect ([2]; 100 mg s.c., individual patients): local s.c. irritation; also recorded: not reported; also recorded: headache post inj | clinical response in the detailed patient description, words ([2]; 100 mg s.c.): subjectively significantly improved with a clear reduction in frequency and local pain from the bladder; also recorded: pain relief followed immediately; also recorded: constant relief of symptoms; also recorded: the urge, frequency and bladder pain dramatically decreased; also recorded: the urgency and frequency was dramatically reduced; also recorded: relief of fever attacks and arthralgia, as well as reduced urgency and frequency | clinical response in the detailed patient description, words ([2]; 100 mg s.c., listed as Anakinra): significant symptom and pain relief; also recorded: constant relief of symptoms | maximum effect generally lasted ([2]; after one s.c. inj. of 100 mg): 2 to 3 days | maximum effect on symptoms seen within ([2]; after one s.c. inj. of 100 mg, all nine patients): 1 to 24 h | symptoms as measured by symptom scoring, words ([2]; all patients): dramatically reduced symptoms | treatment effect during long-term follow-up, words ([2]; all patients): consistent | experienced quality of life (QoL), words ([2]; human, in vivo): increased in all patients; also recorded: highly increased, or increased | number of micturitions at night-time, words ([2]; human, in vivo): generally reduced | number of micturitions during daytime, words ([2]; human, in vivo): reduced in all patients | pain experienced by the patients, words ([2]; human, in vivo): decreased dramatically | patients completely free from pain ([2]; of nine patients): five out of the nine | Frequency (nycturia) post (number of micturations during nighttime) [2, 4]: (0) and (1) (6×) and (2) | Frequency post (number of micturations during daytime) [2, 4]: 5 (2×) and 4 (2×) and 6 (3×) and 8 | Frequency (nycturia) pre (number of micturations during nighttime) [2, 5]: (1-2) and (5) (3×) and (3) (2×) and (4) and (1) | Frequency pre (number of micturations during daytime) [2, 5]: 12 (4×) and 11 and 8 (2×) and 7 | Long-term follow-up: Comment ([2]; individual patients, 100 mg s.c. dosing 1 per 2-4 weeks): increased QoL,; also recorded: symptom free | Long-term follow-up: Comment ([2]; individual patients, 100 mg s.c. dosing 1 per 2-3 days): highly increased QoL | Long-term follow-up: Comment ([2]; individual patients, 100 mg s.c. dosing 1 per day): highly increased QoL,; also recorded: planned cystectomy postponed | Long-term follow-up: Comment ([2]; individual patients, 100 mg s.c. dosing 1 per week): highly increased QoL; also recorded: highly increased QoL,; also recorded: highly increased QoL; | QoL reduction post ([2]; score 0-6, 0 not reduced QoL, post treatment, individual patients): 2 (2×) and 1 (2×) and 0 (5×) | Pain post ([2]; score 0-6, 0 symptom-free, post treatment, individual patients): 2 (2×) and 1 (2×) and 0 (5×) | Pain pre ([2]; score 0-6, 6 severe pain, pre treatment baseline, individual patients): 5 (3×) and 5-6 and 6 and 4 (4×) | QoL reduction pre ([2]; score 0-6, 6 severely reduced QoL, pre treatment baseline, individual patients): 5 (3×) and 5-6 and 6 (2×) and 4 (3×) | urine IL-1β levels after Anakinra treatment (IL-1β): do not change | patients with dramatic clinical improvement ([3]; daily 100 mg for seven days, ten BPS patients): 9/10 | lasting therapeutic effects ([3]; human, in vivo): 3 days | quality of life, words ([3]; human, in vivo): increased quality of life | side effects ([3]; human, in vivo): Two patients reported local irritation at the injection site | symptom score (pain and frequency), words ([3]; human, in vivo): reduction in symptom score | quality of life, words ([3]; human, in vivo, listed as Kineret): marked increase in quality of life | symptom relief at the onset of treatment, median ([3]; median): 2 h | patients with complete, or close to complete clinical response ([3]; of ten patients): Nine of the patients | relief of symptoms after the first injection ([3]; one patient with very severe BPS/ICS): 1 to 2 h | duration of symptom relief ([3]; range over patients): 0.5 to 8 days | time to symptom relief after the first dose ([3]; range over patients): 1 to 6 h | urine SP levels after Anakinra treatment (Substance P; FIG. 3): reduced | urine SP concentration at time of minimum symptom, after treatment (Substance P; paired samples, P=0.02): 136 pg/mL | urine SP concentration at time of maximum symptom (Substance P; paired samples, baseline of the comparison, P=0.02): 243 pg/mL
